Source: publication PMC7932537, “Quantitative profiling of protease specificity” (PLoS Computational Biology, 2021)

Test system: MMP-2
Assay: Substrate phage display with NGS: relative probability (RP) of P3-P1' tetramer clusters
Format: biochemical, human
Settings: for avg_RP: MMP2 - no binning; for relative_probability: tetramer clusters unique to the MMP-2 selectome, MMP-2 RP
[1] = average relative probability of the P3-P1' tetramer, redundant tetramers have been averaged out
[2] = average relative probability of the tetramer, redundant tetramers averaged out
[3] = average relative probability (RP) of the P3-P1' tetramer, redundant tetramers have been averaged out

| Substance | avg_RP [1] | avg_RP [2] | further results |
| --- | --- | --- | --- |
| VIAL | 8.0877 | – | – |
| YAGL | – | 20.9112 | – |
| LAAM [P3-P1' tetramer cluster] | 30.6825 | – | relative_probability: 30.68 |
| HLNI | – | – | avg_RP [3]: 0.0853 |
| ARGL | – | 25.9476 | – |
| YLNY | – | – | avg_RP [3]: 1.6791 |
| PSAM | – | 32.7825 | – |
| IGNF | 24.8743 | – | – |
| SYAL | 4.7967 | – | – |
| SFAL | 0.5631 | – | – |
| IASL | – | – | avg_RP [3]: 32.8949 |
| VWNL | – | 14.4124 | – |
| AKPL | – | – | avg_RP [3]: 20.8275 |
| IRHL | – | – | avg_RP [3]: 22.5548 |
| ATAL | – | 22.9481 | – |
| WYGM | 0.0531 | – | – |
| VHHL | – | 14.1228 | – |
| PYGM | – | 27.2726 | – |
| YRHM | 0.3212 | – | – |
| PIEL | – | 20.545 | – |
| VYRL | – | – | avg_RP [3]: 5.0832 |
| PRPV | – | 29.4989 | – |

| Substance | avg_RP [1] | avg_RP [2] | further results |
| --- | --- | --- | --- |
| VYWM | – | 12.492 | – |
| SWGL | – | 0.1389 | – |
| YRFM | – | – | avg_RP [3]: 0 |
| PRSM | – | 32.6673 | – |
| AQNL | 19.4627 | – | – |
| PSWL | 35.705 | – | – |
| YLPM | 0.4306 | – | – |
| PNPL | – | 23.6266 | – |
| WSWL | – | 7.8776 | – |
| YRSL | 1.5061 | – | – |
| VFNL | 14.497 | – | – |
| ISNW | – | 26.0602 | – |
| PSNL [P3-P1' tetramer cluster] | – | – | relative probability (RP) (tetramer probability in MMP2 set / naive library, 200 nM protease, 2 h, 37°C): 36.5166 |
| HQWL | – | – | avg_RP [3]: 19.2059 |
| VRNL | – | – | avg_RP [3]: 29.2567 |
| PHYL | – | 24.5149 | – |
| PRGM | – | 34.3819 | – |
| VRFL | – | 15.0438 | – |
| PGLL | – | 24.9611 | – |
| GRNL | – | 8.8117 | – |
| PQHL | – | – | avg_RP [3]: 31.2196 |
| PSWV | – | 21.5104 | – |

| Substance | avg_RP [1] | avg_RP [2] | further results |
| --- | --- | --- | --- |
| WGNL | 14.7295 | – | – |
| LYHL | 4.5289 | – | – |
| VMRM | 0.0611 | – | – |
| MAAL | – | 32.6562 | – |
| VWGI | 3.0103 | – | – |
| YASL | – | 26.9916 | – |
| IATL | – | 24.2778 | – |
| TQNL | – | 7.2378 | – |
| VYWL | – | 16.4375 | – |
| IWSL | – | 5.404 | – |
| ANSL | – | 10.0738 | – |
| AQEL | – | – | avg_RP [3]: 0.1876 |
| GASL | 9.5377 | – | – |
| VMLL | 0.4692 | – | – |
| FLHW | 0.0579 | – | – |
| YHHL | – | 0 | – |
| YQGL | – | 4.3322 | – |
| LWRI | – | – | avg_RP [3]: 0 |
| GRPL | – | – | avg_RP [3]: 5.2852 |
| PGWL | 33.1284 | – | – |
| HYSL | 0.1694 | – | – |
| ALHL | 14.6488 | – | – |

| Substance | avg_RP [1] | avg_RP [2] | further results |
| --- | --- | --- | --- |
| FRSM | 5.3885 | – | – |
| AWYL | 0.0964 | – | – |
| AMNL | 16.2852 | – | – |
| VGVL | – | – | avg_RP [3]: 7.4169 |
| ASHL | – | 19.8208 | – |
| ALAL | 22.1184 | – | – |
| MFHL | 0.052 | – | – |
| LNYL | 12.3459 | – | – |
| ALWL | – | – | avg_RP [3]: 7.2418 |
| IQTM | 7.1082 | – | – |
| SGHL | – | 1.458 | – |
| PMRL | 20.4124 | – | – |
| VWPL | – | 5.2943 | – |
| AFHL | – | – | avg_RP [3]: 8.795 |
| WRHL | 0.4087 | – | – |
| VYNL | – | 19.1818 | – |
| AQYL | 7.443 | – | – |
| PSRI | – | – | avg_RP [3]: 23.675 |
| AVAI | – | 20.993 | – |
| PRGS | – | 16.3331 | – |
| VFAL | 11.8827 | – | – |
| VHQM | 0 | – | – |

| Substance | avg_RP [1] | avg_RP [2] | further results |
| --- | --- | --- | --- |
| ANNL | – | 18.8719 | – |
| FSEL | 12.1057 | – | – |
| VLMM | 2.7364 | – | – |
| PLGM | – | 34.1118 | – |
| GANL | 13.1428 | – | – |
| YRAL | – | – | avg_RP [3]: 8.2547 |
| IGEI | – | 19.2988 | – |
| SQHL | – | – | avg_RP [3]: 0.2367 |
| SGFL | 6.5712 | – | – |
| VFSL | – | 9.6313 | – |
| PESL | – | 26.0767 | – |
| LRQM | 8.6765 | – | – |
| HFHL | – | 0.0941 | – |
| PWAW | – | 10.3227 | – |
| RRNL | 6.1579 | – | – |
| SQSL | 5.003 | – | – |
| IAAI [P3-P1' tetramer cluster] | – | – | relative_probability: 29.40 |
| TAWL | – | – | avg_RP [3]: 24.7743 |
| GSHL | – | 4.2785 | – |
| PMNL | – | – | avg_RP [3]: 32.5586 |
| AHQL | 4.1004 | – | – |
| ASGL | 25.6721 | – | – |

| Substance | avg_RP [1] | avg_RP [2] | further results |
| --- | --- | --- | --- |
| GLNL | 0.5789 | – | – |
| MLAL | 5.6722 | – | – |
| FRNL | 9.8211 | – | – |
| TMAL | – | – | avg_RP [3]: 0.4939 |
| YAHY | – | – | avg_RP [3]: 10.8158 |
| PKQL | 26.0949 | – | – |
| ARWL | 19.0362 | – | – |
| ASNL | 28.7368 | – | – |
| IYAL | 6.9669 | – | – |
| NLPL | – | – | avg_RP [3]: 4.8994 |
| QMSL | 0.2763 | – | – |
| TLAL | – | 1.9537 | – |
| PLHM | – | 30.0095 | – |
| TQHL | 2.9223 | – | – |
| PVAM | – | 31.7171 | – |
| PSGF | – | 31.2448 | – |
| VWNY | – | 4.6964 | – |
| YANM | 22.6837 | – | – |
| AMRM | 0.1716 | – | – |
| LRAM | – | 29.407 | – |
| GAWL | – | – | avg_RP [3]: 11.7256 |
| MLSM | 5.2342 | – | – |
